Columns and labels:
[1] = system: NCI-H1963 (Small Cell Lung Carcinoma); test: Bliss excess, mean over the matrix (fraction); higher = more synergy
How it was run: (§1)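 Cell lines in DMEM/F12 or RPMI with 10% FBS were plated in 1536-well plates, held 24 hours at 37°C, 5% CO2, then given two-drug dose matrices for 72 hours (DMSO typically 0.2%). Viability was read by CellTiter-Glo 2.0 luminescence and scaled as inhibition from 0 (vehicle wells) to 1 (blank wells). Combination Emax is the second-highest inhibition in the matrix; Bliss excess is observed combination effect minus expected EA + EB − EA·EB, EA and EB being single-agent effects.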

[2] = system: SNU-407 (Colorectal Carcinoma); test: as above
How it was run: as §1

[3] = system: RCC-JW (Kidney Carcinoma); test: as above
How it was run: as §1

[4] = system: P32-ISH (Burkitt's Lymphoma); test: as above
How it was run: as §1

[5] = system: P30-OHK (B-Lymphoblastic Leukemia); test: as above
How it was run: as §1

[6] = system: SCC-4 (Oral Cavity Carcinoma); test: as above
How it was run: as §1

[7] = system: LS-1034 (Colorectal Carcinoma); test: as above
How it was run: as §1

[8] = system: MOLP-8 (Plasma Cell Myeloma); test: as above
How it was run: as §1

[9] = system: GAK (Melanoma); test: as above
How it was run: as §1

[10] = system: OAW-28 (Ovarian Carcinoma); test: as above
How it was run: as §1

[11] = system: NMC-G1 (Low Grade Glioma); test: as above
How it was run: as §1

[12] = system: COR-L88 (Small Cell Lung Carcinoma); test: as above
How it was run: as §1

[13] = system: BxPC-3 (Pancreatic Carcinoma); test: as above
How it was run: as §1

[14] = system: MM1S (Plasma Cell Myeloma); test: as above
How it was run: as §1

[15] = system: NAMALWA (Burkitt's Lymphoma); test: as above
How it was run: as §1

[16] = system: SiHa (Cervical Carcinoma); test: as above
How it was run: as §1

[17] = system: ZR-75-30 (Breast Carcinoma); test: as above
How it was run: as §1

[18] = system: NCI-H1341 (Small Cell Lung Carcinoma); test: combination Emax (second highest fraction inhibited in the dose matrix, 72 h); higher = more inhibition; extreme values may be limits of the assay
How it was run: as §1

[19] = system: IA-LM (Non-Small Cell Lung Carcinoma); test: as above
How it was run: as §1

[20] = system: TUR (Acute Myeloid Leukemia); test: as above
How it was run: as §1
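Wherever Bliss excess, mean over the matrix is given: after 72 h of two-drug dosing.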

SMILES	Bliss excess [1]	Bliss excess [2]	Bliss excess [3]	Bliss excess [4]	Bliss excess [5]	Bliss excess [6]	Bliss excess [7]	Bliss excess [8]	Bliss excess [9]	Bliss excess [10]	Bliss excess [11]	Bliss excess [12]	Bliss excess [13]	Bliss excess [14]	Bliss excess [15]	Bliss excess [16]	Bliss excess [17]	combination Emax [18]	combination Emax [19]	combination Emax [20]
CC(=O)Nc1cccc(-n2c(=O)n(C3CC3)c(=O)c3c(Nc4ccc(I)cc4F)n(C)c(=O)c(C)c32)c1 [Trametinib] + Cc1nc(-c2cn3c(n2)-c2ccc(-c4cnn(C(C)(C)C(N)=O)c4)cc2OCC3)n(C(C)C)n1 [Taselisib] (first compound max 1 µM, 7x7, partner max 10 µM)	0.0452	0.0236	0.0114	0.0479	0.151	0.147	0.0234	0.186	0.0805	0.158	0.0478	0.0085	0.354	0.119	0.0825	0.0162	0.0155	0.927	0.486	0.992
CC1(C)CCC(CN2CCN(c3ccc(C(=O)NS(=O)(=O)c4ccc(NCC5CCOCC5)c([N+](=O)[O-])c4)c(Oc4cnc5[nH]ccc5c4)c3)CC2)=C(c2ccc(Cl)cc2)C1 [Venetoclax] + C1CN(CCC1(C(=O)N[C@@H](CCO)C2=CC=C(C=C2)Cl)N)C3=NC=NC4=C3C=CN4 [Capivasertib] (first compound max 1 µM, 7x7, partner max 3 µM)	-0.0031	-0.0204	-0.0312	-0.0094	0.058	-0.0792	-0.0214	-0.0114	-0.0305	-0.0123	-0.0683	-0.0181	-0.0171	-0.0028	-0.0126	-0.002	-0.0324	0.551	0.189	0.599
CC1(C)CCC(CN2CCN(c3ccc(C(=O)NS(=O)(=O)c4ccc(NCC5CCOCC5)c([N+](=O)[O-])c4)c(Oc4cnc5[nH]ccc5c4)c3)CC2)=C(c2ccc(Cl)cc2)C1 [Venetoclax] + C=CCn1c(=O)c2cnc(Nc3ccc(N4CCN(C)CC4)cc3)nc2n1-c1cccc(C(C)(C)O)n1 [AZD1775] (first compound max 1 µM, partner max 1 µM)	0.123	-0.0755	-0.0116	-0.0118	0.207	0.0032	-0.043	-0.0225	0.0074	-0.009	0.0064	0.0736	0.092	-0.0281	0.0438	-0.0527	-0.0286	0.808	0.36	0.911
CC1(C)CCC(CN2CCN(c3ccc(C(=O)NS(=O)(=O)c4ccc(NCC5CCOCC5)c([N+](=O)[O-])c4)c(Oc4cnc5[nH]ccc5c4)c3)CC2)=C(c2ccc(Cl)cc2)C1 [Venetoclax] + CCN(CCO)CCCOc1ccc2c(Nc3cc(CC(=O)Nc4cccc(F)c4)[nH]n3)ncnc2c1 [AZD2811] (first compound max 1 µM, 7x7, partner max 1 µM)	0.0196	-0.036	-0.0068	-0.0282	0.0653	-0.0404	-0.0328	0.025	-0.0537	0.0375	-0.0253	0.053	0.0003	0.0157	0.0894	-0.0107	-0.0575	0.495	0.249	0.258
CC1(C)CCC(CN2CCN(c3ccc(C(=O)NS(=O)(=O)c4ccc(NCC5CCOCC5)c([N+](=O)[O-])c4)c(Oc4cnc5[nH]ccc5c4)c3)CC2)=C(c2ccc(Cl)cc2)C1 [Venetoclax] + CN(C)CCCOc1ccc(-c2ccc3ncc4c(c3c2)n(C2CCOCC2)c(=O)n4C)cn1 [AZD0156] (first compound max 1 µM, 7x7, partner max 1 µM)	0.0715	-0.0437	0.0087	-0.0083	0.0881	-0.024	-0.052	0.0203	-0.0378	0.0076	-0.0373	-0.0237	-0.0304	0.0344	0.0387	-0.0419	-0.0422	0.361	0.217	0.0455

Reference: the supplement of paper PMC11061612
